Assay results published in ChEMBL document CHEMBL1155713, “Three new peroxides from the sponge Plakinastrella species” (2001).
Values after ≈ are worked out from the molar mass of the structure shown.

What was measured:
Assay type in all cases: functional
Candida albicans [1] = assay: Antifungal activity against Candida albicans in Sabouraud dextrose broth
Candida albicans [2] = assay: Antifungal activity against Candida albicans in RPMI medium
Aspergillus fumigatus = assay: Antifungal activity against Aspergillus fumigatus

Compound	MIC (Candida albicans [1])	MIC (Candida albicans [2])	IC90 (Aspergillus fumigatus)
CC/C=C/C=C/C=C/CCCCCCCC[C@@]1(C)C[C@](C)(CC(=O)O)OO1 [EPIPLAKINIC ACID F]	25 µg/mL (≈ 66 µM)	6.25 µg/mL (≈ 16.5 µM)	25 µg/mL (≈ 66 µM)
CC/C=C/C=C/C=C/CCCCCCCC[C@]1(C)C[C@](C)(CC(=O)O)OO1 [PLAKINIC ACID F]	25 µg/mL (≈ 66 µM)	3.1 µg/mL (≈ 8.19 µM)	25 µg/mL (≈ 66 µM)
C[C@@]1(CCCCCCCCCc2ccc(O)cc2)C[C@]2(C)OC(=O)C[C@@H]2OO1 [PLAKORTOLIDE F]	> 125 µg/mL	> 125 µg/mL	> 125 µg/mL
